Assay results published in the NIST ThermoML archive (doi:10.1016/j.fluid.2014.02.027).

Conditions: Liquid; for vapor or sublimation pressure: Closed cell (Static) method

FC(F)(F)C(F)(F)C(F)(C(F)(F)C(F)(F)F)C(F)(C(F)(F)F)C(F)(F)F [perfluoro-2-methyl-3-ethylpentane]
Conditions | Critical pressure [kPa] | Critical temperature [K] | vapor or sublimation pressure [kPa]
358.2 K | – | – | 59
368.19 K | – | – | 82
378.2 K | – | – | 111
388.17 K | – | – | 146
398.19 K | – | – | 191
408.13 K | – | – | 245
418.15 K | – | – | 312
428.16 K | – | – | 391
438.11 K | – | – | 484
448.07 K | – | – | 593
458.05 K | – | – | 720
468 K | – | – | 866
473 K | – | – | 947
477.98 K | – | – | 1034
482.95 K | – | – | 1127
487.89 K | – | – | 1225
492.92 K | – | – | 1332
497.89 K | – | – | 1447
502.9 K | – | – | 1571
Direct measurement | 1685 | – | –
Visual observation in an unstirred cell | – | 507.12 | –

FC(F)(F)C(F)(F)C(F)(C(F)(C(F)(F)F)C(F)(F)F)C(F)(C(F)(F)F)C(F)(F)F
Conditions | vapor or sublimation pressure [kPa]
364.58 K | 35
368.2 K | 40
373.47 K | 48
378.29 K | 56
388.47 K | 77
398.2 K | 103
408.48 K | 137
418.26 K | 176
428.22 K | 226
438.31 K | 286
448.23 K | 357
458.16 K | 438
468.16 K | 536
478.24 K | 649
488.03 K | 778
498.02 K | 928
503.12 K | 1014
507.94 K | 1104
